Columns and labels:
[1] = tested on: CAL51 cell line; assay: CellTiter-Glo 2.0 cell viability, 7x7 combination dose response matrix, synergy scoring; type: cell-based
Description: (§1) A study was undertaken to determine whether the combination of a GSPT1-directed MGD and an inhibitor of the PI3K/AKT/mTOR pathway could be effective in killing cancer cells and whether certain combination could elicit a greater than additive effect on cell killing.
(§2) FIG. 1 is a flow diagram of the method used to assess cancer cell killing by a combination of a GSPT1-directed MGD and an inhibitor of the PI3K/AKT/mTOR pathway. Certain of the materials and equipment used in the studies are presented in Table 3 and the cell lines used are presented in Table 4.
(§3) All assays were run in triplicate. Each 384-well plate accommodated six 7×7 dose response matrices (FIG. 2). All compound handling was performed using an Echo 650 Series Acoustic Liquid Handler, which enables fully automated, precise, contact-free acoustic transfer in volumes as low as 2.5 nL.
(§4) The following protocol was used for cell plating: • 1. Warm media to room temperature or 37° C. • 2. Prepare complete phenol-free media by adding 10% FBS+1% Pen-Strep to RPMI 1640 Medium or DMEM. • 3. Aspirate media from T175 tissue culture flask and rinse with 10 ml PBS. • 4. Aspirate PBS and add 2 mL 0.25% trypsin. Incubate the flask at 37° C. for 5 min or until cells are detached. • 5. Add 10 mL complete media to the flask to neutralize the trypsin, then collect cells in a 50 mL conical tube. • 6. Centrifuge cells at 300 g for 5 min. Aspirate media and suspend cell pellet in fresh media. Use cell strainer to strain cells into a new 50 mL conical tube. • 7. […] Mix 100 uL cell suspension with 100 uL trypan blue (1:1) and pipette 20 μL of the mixture into each of 2 counting chambers on a slide. Insert slide. • b. Adjust focus and record the live cell count. At least 2 independent measurements should be taken. […] Cell viability should be greater than 90%. […] Dilute cell suspension to the desired concentration (20000 cells/mL) using complete phenol-free media. Prepare 10 mL cell suspension per plate+an extra 10 mL for priming the liquid handler. • 9. Dispense cells into 384-well plates using the liquid handler at 25 uL/well (500 cells/well). 3 plates should be prepared per compound plate to be treated. • 10. Cells should be dispensed into columns 1-23 only. Media only (no cells) should be dispensed into column 24. • 11. Allow plates to rest at RT for 30 minutes before transferring to the incubator. Incubate cells overnight at 37° C., 95% humidity, and 5% CO2.
(§5) Compound plates were prepared as follows using an Echo 650 Series Acoustic Liquid Handler. • 1. A compound plate containing 7-point dose responses of each compound to be treated is first prepared from stock compounds. • 2. The cell plates are treated with compounds according to the following maps, where the first compound is added across all six 7 by 7 dose response matrices, and its concentration varies by row (FIG. 2; top matrix), whereas the second compound varies for each dose response matrix, and its concentration varies by column (FIG. 2; bottom matrix). Each cell plate receives one Compound A and six different Compound Bs. • 3. To prepare a compound plate, 384-well PP plate with stock compounds (highest concentration) is prepared. Compounds are diluted 1:1000 in the cell plates, e.g. 10 mM on compound plate will be 10 uM on cell plate. A 384-well LDV plate with pre-determined volumes of DMSO is prepared. Echo is used to dilute stock compounds from PP plate into LDV plate to prepare 7-point dose responses.
(§6) Compounds were added to the cells and cell viability was measured after 72 hour incubation using CellTiter-Glo 2.0 Cell Viability Assay (Promega): • 1. For a compound addition, Echo is used to transfer 25 nL from the compound plate wells to the cell plates according to the plate maps shown in FIG. 2. Cell plates are treated in triplicate. Each well of the cell plate has 25 uL media (1:1000 dilution). Incubate cells post-treatment at 37° C., 95% humidity, and 5% CO2 for 72 hrs (step 106). • 2. […]

[2] = tested on: MCF7 cell line; assay: as above; type: cell-based
Description: as §1, §2, §3, §4, §5, §6

[3] = tested on: MDA-MB-157 cell line; assay: as above; type: cell-based; conditions: combined with M2698 41-10000 nM, first compound 0.41-100 nM
Description: as §1, §2, §3, §4, §5, §6

[4] = tested on: MDA-MB-231 cell line; assay: as above; type: cell-based; conditions: MDA-MB-231; combined with M2698 41-10000 nM; first compound 0.41-100 nM
Description: as §1, §2, §3, §4, §5, §6

[5] = tested on: DOHH-2 cell line; assay: CTG viability, 11x11 concentration matrix, Loewe synergy (lymphoma); conditions: inhibitor combined with compound 1-1, 11x11 matrix, 72 hours
Description: (§7) Cells were cultured in the media recommended by the supplier.
(§8) On the day before compound addition, cells were seeded in 384-well-plates (white with clear flat bottom) at the densities indicated in Table 6 in 40 μL of growth medium. The next day, compounds were dispensed from 10 mM stocks using a HP D300 dispenser according to the concentration matrices described above. For each cell line, the compound concentration matrices were dispensed twice as side-by-side duplicates on one 384-well-plate. In addition, each plate contained 14 wells with only growth medium and 44 wells with cells treated with DMSO alone to calculate the average background and maximal signals, respectively. The final DMSO concentration was normalized to 0.2% across the plates. Plates were then incubated for 72 hours. CellTiter-Glo® Luminescent Cell Viability Assay (CTG, Promega G7570) reagent was prepared according to the manufacturer's instructions. Plates were equilibrated to room temperature for approximately 30 minutes, 25 μL CTG reagent was added to each well and plates were mixed on an orbital shaker for 10 minutes to allow for cell lysis. After further incubation for 20 minutes at room temperature, the clear bottoms of the plates were pasted with white back seal and luminescence was read on an EnVision plate reader (measurement time 0.1 seconds).

[6] = tested on: DB cell line; assay: as above; conditions: inhibitor combined with compound 1-1, 11x11 matrix, 72 hours
Description: as §7, §8

[7] = tested on: WSU-DLCL2 cell line; assay: as above; conditions: inhibitor combined with compound 1-1, 11x11 matrix, 72 hours
Description: as §7, §8

[8] = tested on: RAJI cell line; assay: as above; conditions: inhibitor combined with compound 1-1, 11x11 matrix, 72 hours
Description: as §7, §8

[9] = tested on: SU-DHL-6 cell line; assay: as above; conditions: inhibitor combined with compound 1-1, 11x11 matrix, 72 hours
Description: as §7, §8

[10] = CAL51, combined with Alpelisib 41-10000 nM, first compound 0.41-33.33 nM
[11] = CAL51, combined with M2698 41-10000 nM, first compound 0.41-100 nM
[12] = MCF7, combined with Alpelisib 41-10000 nM, first compound 0.41-33.33 nM
[13] = MCF7, combined with M2698 41-10000 nM, first compound 0.41-100 nM
[14] = CAL51, combined with Alpelisib 41-10000 nM, first compound 0.41-100 nM
[15] = CAL51, combined with Capivasertib 41-10000 nM, first compound 0.41-100 nM
[16] = CAL51, combined with GNE-477 41-10000 nM, first compound 0.41-100 nM
[17] = CAL51, combined with HS173 41-10000 nM, first compound 0.41-100 nM
[18] = CAL51, combined with Serabelisib 41-10000 nM, first compound 0.41-100 nM
[19] = MCF7, combined with Alpelisib 41-10000 nM, first compound 0.41-100 nM
[20] = MCF7, combined with Capivasertib 41-10000 nM, first compound 0.41-100 nM
[21] = MCF7, combined with GNE-477 41-10000 nM, first compound 0.41-100 nM
[22] = MCF7, combined with HS173 41-10000 nM, first compound 0.41-100 nM
[23] = MCF7, combined with Serabelisib 41-10000 nM, first compound 0.41-100 nM

SMILES: O=C1CCC(N2Cc3ccc(COC(=O)Nc4ccc(F)c(OC(F)(F)F)c4)cc3C2=O)C(=O)N1 (stereo not shown) [Compound 1-2, [2-(2,6-dioxopiperidin-3-yl)-3-oxo-2,3-dihydro-1H-isoindol-5-yl]methyl N-[4-fluoro-3-(trifluoromethoxy)phenyl]carbamate]
- Mean Bliss synergy score [1, 10]: 13.24
- Mean Loewe synergy score [1, 10]: 10.04
- Mean Bliss synergy score [1, 11]: 20.45
- Mean Loewe synergy score [1, 11]: 10.06
- Mean Bliss synergy score ([1]; combined with M2698 (41 nM to 10 uM), CAL51 cell line, mean across dose response matrix, 72 hrs): 20.45
- Mean Bliss synergy score [2, 12]: 14.93
- Mean Loewe synergy score [2, 12]: 11.94
- Mean Bliss synergy score [2, 13]: 19.15
- Mean Loewe synergy score [2, 13]: 12.31
- Mean Bliss synergy score [3]: 4.58
- Mean Loewe synergy score [3]: 5.68
- Mean Bliss synergy score [4]: 1.26
- Mean Loewe synergy score [4]: 3.82

SMILES: O=C1CCC(N2Cc3ccc(COC(=O)Nc4ccc(F)c(OC(F)F)c4)cc3C2=O)C(=O)N1 (stereo not shown) [Compound 1-3, [2-(2,6-dioxopiperidin-3-yl)-3-oxo-2,3-dihydro-1H-isoindol-5-yl]methyl N-[3-(difluoromethoxy)-4-fluorophenyl]carbamate]
- Mean Bliss synergy score [1, 10]: 13.63
- Mean Loewe synergy score [1, 10]: 8.54
- Mean Bliss synergy score [1, 11]: 30.29
- Mean Loewe synergy score [1, 11]: 15.43
- Mean Bliss synergy score [2, 12]: 17.71
- Mean Loewe synergy score [2, 12]: 10.32
- Mean Bliss synergy score [2, 13]: 25.34
- Mean Loewe synergy score [2, 13]: 13.77
- Mean Bliss synergy score ([2]; combined with Alpelisib (41 nM to 10 uM), MCF7 cell line, mean across dose response matrix, 72 hrs): 17.71
- Mean Bliss synergy score [3]: 6.71
- Mean Loewe synergy score [3]: 6.57
- Mean Bliss synergy score [4]: 5.67
- Mean Loewe synergy score [4]: 4.75

SMILES: Cc1cc(C)cc(NC(=O)OCc2ccc3c(c2)C(=O)N(C2CCC(=O)NC2=O)C3)c1 (stereo not shown) [Compound 1-4, [2-(2,6-dioxopiperidin-3-yl)-3-oxo-2,3-dihydro-1H-isoindol-5-yl]methyl N-(3,5-dimethylphenyl)carbamate]
- Mean Bliss synergy score [1, 10]: 10.76
- Mean Loewe synergy score [1, 10]: 7.63
- Mean Bliss synergy score [1, 14]: 36.63
- Mean Loewe synergy score [1, 14]: 11.29
- Mean Bliss synergy score [1, 15]: 30.43
- Mean Loewe synergy score [1, 15]: 14.67
- Mean Bliss synergy score [1, 16]: 15.82
- Mean Loewe synergy score [1, 16]: 6.64
- Mean Bliss synergy score [1, 17]: 8.74
- Mean Loewe synergy score [1, 17]: 1.29
- Mean Bliss synergy score [1, 11]: 16.31
- Mean Loewe synergy score [1, 11]: 8.47
- Mean Bliss synergy score [1, 18]: 5.71
- Mean Loewe synergy score [1, 18]: −1.80
- Mean Bliss synergy score ([1]; combined with Alpelisib (41 nM to 10 uM), CAL51 cell line, mean across dose response matrix, 72 hrs): 36.63
- Mean Bliss synergy score [2, 12]: 9.41
- Mean Loewe synergy score [2, 12]: 7.90
- Mean Bliss synergy score [2, 19]: 17.96
- Mean Loewe synergy score [2, 19]: 9.59
- Mean Bliss synergy score [2, 20]: 17.17
- Mean Loewe synergy score [2, 20]: 9.85
- Mean Bliss synergy score [2, 21]: 9.39
- Mean Loewe synergy score [2, 21]: 7.58
- Mean Bliss synergy score [2, 22]: 3.51
- Mean Loewe synergy score [2, 22]: 1.27
- Mean Bliss synergy score [2, 13]: 14.55
- Mean Loewe synergy score [2, 13]: 7.79
- Mean Bliss synergy score [2, 23]: 4.26
- Mean Loewe synergy score [2, 23]: 1.36
- Mean Bliss synergy score [3]: 4.94
- Mean Loewe synergy score [3]: 5.54
- Mean Bliss synergy score [4]: 2.10
- Mean Loewe synergy score [4]: 2.36

SMILES: O=C1CCC(N2Cc3ccc(COC(=O)Nc4cccc(OC(F)(F)F)c4)cc3C2=O)C(=O)N1 (stereo not shown) [Compound 1-5, [2-(2,6-dioxopiperidin-3-yl)-3-oxo-2,3-dihydro-1H-isoindol-5-yl]methyl N-[3-(trifluoromethoxy)phenyl]carbamate]
- Mean Bliss synergy score [1, 10]: −0.17
- Mean Loewe synergy score [1, 10]: 7.63
- Mean Bliss synergy score [1, 11]: 7.95
- Mean Loewe synergy score [1, 11]: 11.33
- Mean Bliss synergy score [2, 12]: −2.19
- Mean Loewe synergy score [2, 12]: 6.06
- Mean Bliss synergy score [2, 13]: 5.35
- Mean Loewe synergy score [2, 13]: 12.24
- Mean Bliss synergy score [3]: 2.85
- Mean Loewe synergy score [3]: 4.08
- Mean Bliss synergy score [4]: 1.74
- Mean Loewe synergy score [4]: 3.68

SMILES: CC[C@H](Nc1ncnc2nc[nH]c12)c1nc2cccc(F)c2c(=O)n1-c1ccccc1 [idelalisib, 5-fluoro-3-phenyl-2-[(1S)-1-(7H-purin-6-ylamino)propyl]quinazolin-4-one]
- Mean Loewe synergy score, DOHH2 [5]: 4.04
- Mean Loewe synergy score, DB [6]: −3.25
- Mean Loewe synergy score, WSU-DLCL2 [7]: −2.08
- Mean Loewe synergy score, RAJI [8]: 3.47
- Mean Loewe synergy score, SUDHL6 [9]: 5.75

Reference: patent US20260166045A1, “COMBINATION THERAPY COMPRISING GSPT1-DIRECTED MOLECULAR GLUE DEGRADERS AND PI3K/AKT/mTOR PATHWAY INHIBITORS” (Monte Rosa Therapeutics, Inc., priority 2022, published 2026)
